# Reference: patent US5698575A, “Chromone compounds, pharmaceutical compositions containing the same, and use of the same” (Kureha Chemical Industry Co., Ltd., priority 1995, dated 1997)
# Key:
# [1] = system: Wistar rat; experiment: Acute toxicity of chromone derivative, oral, rats; type: in vivo; settings: male rats, 500 mg/kg orally
# Procedure: (§1) The acute toxicity of the chromone derivative of the present invention was evaluated, for Crj:CD-1(ICR) mice (male; 6 weeks old) and Wistar rat (male; 6 weeks old). […] In the experiments as above, two animals were used for each group.
# [2] = system: Crj:CD-1(ICR) mice; experiment: Acute toxicity of chromone derivative, oral, mice; type: in vivo, mouse; settings: male mice, 500 mg/kg orally
# Procedure: as §1
# [3] = system: Mouse melanoma (B16-BL6) cells; experiment: Antitumor activity to mouse melanoma-cells-implanted mouse; type: in vivo; settings: 100 mg/kg orally once a day for 13 days, C57BL/6N mice
# Procedure: Mouse melanoma (B16-BL6) cells were subcutaneously implanted in the amount 1×10^6 cells in C57BL/6N mice (6 weeks old, male) at the axillary fossa. From the day after the implantation, 2-pyrrolylthiochromone was orally administered once a day for 13 days. The composition to be administered was preparedby dissolving 2-pyrrolylthiochromone powder in sesame oil, and administered at the dose of 100 mg of the compound per 1 kg of the mouse body weight. The amount of sesame oil administered was 10 ml/kg of the mouse body weight. To the control group, only sesame oil was administered. At the next day of the last administration day, the mice were sacrificed, and the weight of the tumor was measured. For the control group where the present compound was not administered, five mice were used, whereas 6 mice were used for the group where the present compound was administered.
SMILES,change in general state and body weight in comparison with the control group ([1]; observed for 7 days),remarkable toxicity ([1]; observed for seven days),change in general state and body weight in comparison with the control group ([2]; observed for 7 days),remarkable toxicity ([2]; observed for seven days),decrease in the body weight due to the administration [3],"inhibitory activity for the tumor growth (tumor weight) in comparison with the control group ([3]; B16-BL6 subcutaneous, FIG. 3) [%]"
"COc1cc(OC)c2c(=O)cc(-n3cnc4ccccc43)oc2c1 [2-benzimidazolyl-5,7-dimethoxychromone]",no change was observed,no remarkable toxicity,no change was observed,no remarkable toxicity,–,–
O=c1cc(-n2cccc2)sc2ccccc12 [2-pyrrolylthiochromone],–,–,–,–,not observed,36.7
